Earlier results, collected in patent publication US12173009B2, “Diamine derivatives as inhibitors of leukotriene A4 hydrolase” (CELLTAXIS, LLC, priority 2005, dated 2024).

Experiments:
[1] = tested on: lower affinity LTB4 receptors on neutrophils; details: additional lower affinity receptors on neutrophils
[2] = target: T1, Human BLT2 (Homo sapiens, UniProt Q9NPC1); details: Human BLT2 versus BLT1
T1 sequence (Q9NPC1 1-358): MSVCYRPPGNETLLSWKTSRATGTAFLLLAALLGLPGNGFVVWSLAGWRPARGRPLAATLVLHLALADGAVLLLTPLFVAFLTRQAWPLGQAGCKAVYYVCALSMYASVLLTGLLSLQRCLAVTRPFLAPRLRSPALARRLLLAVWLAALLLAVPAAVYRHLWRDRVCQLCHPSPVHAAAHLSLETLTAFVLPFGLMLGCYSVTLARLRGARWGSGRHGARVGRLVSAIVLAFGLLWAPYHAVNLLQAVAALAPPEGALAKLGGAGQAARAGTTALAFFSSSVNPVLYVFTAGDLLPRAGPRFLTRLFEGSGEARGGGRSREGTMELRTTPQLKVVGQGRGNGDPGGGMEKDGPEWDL

[3] = target: BLT1; details: Human BLT1 and its mouse, rat and guinea pig orthologues
[4] = target: T2, LTA4-h (Mus musculus, UniProt P24527); details: oral administration; mouse blood ex vivo
T2 construct: host or cells: mouse blood (endogenous enzyme)
T2 sequence (P24527 1-611): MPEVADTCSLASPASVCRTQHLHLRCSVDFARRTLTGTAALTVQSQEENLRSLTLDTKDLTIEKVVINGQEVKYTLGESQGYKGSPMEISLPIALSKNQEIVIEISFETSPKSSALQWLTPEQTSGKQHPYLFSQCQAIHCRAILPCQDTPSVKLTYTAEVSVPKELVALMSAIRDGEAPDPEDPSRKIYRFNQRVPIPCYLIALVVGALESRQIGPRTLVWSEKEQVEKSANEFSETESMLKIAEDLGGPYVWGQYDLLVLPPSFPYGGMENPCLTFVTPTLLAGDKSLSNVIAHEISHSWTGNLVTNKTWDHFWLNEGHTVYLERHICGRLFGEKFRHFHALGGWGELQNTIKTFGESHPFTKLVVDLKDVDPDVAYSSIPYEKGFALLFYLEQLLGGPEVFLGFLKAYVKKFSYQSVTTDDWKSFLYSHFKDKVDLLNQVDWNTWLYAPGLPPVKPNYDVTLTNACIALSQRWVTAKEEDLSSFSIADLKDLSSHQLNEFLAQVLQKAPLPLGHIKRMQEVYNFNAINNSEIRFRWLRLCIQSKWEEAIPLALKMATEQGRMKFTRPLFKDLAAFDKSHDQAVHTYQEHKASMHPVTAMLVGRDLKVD

[5] = tested on: spontaneous colitis; details: eight weeks of treatment; cotton top tamarins
[6] = target: T3, LTA4-h (Rattus norvegicus, UniProt P30349); details: oral administration; rat peritoneum in vivo
T3 construct: host or cells: rat peritoneum (endogenous enzyme)
T3 sequence (P30349 1-611): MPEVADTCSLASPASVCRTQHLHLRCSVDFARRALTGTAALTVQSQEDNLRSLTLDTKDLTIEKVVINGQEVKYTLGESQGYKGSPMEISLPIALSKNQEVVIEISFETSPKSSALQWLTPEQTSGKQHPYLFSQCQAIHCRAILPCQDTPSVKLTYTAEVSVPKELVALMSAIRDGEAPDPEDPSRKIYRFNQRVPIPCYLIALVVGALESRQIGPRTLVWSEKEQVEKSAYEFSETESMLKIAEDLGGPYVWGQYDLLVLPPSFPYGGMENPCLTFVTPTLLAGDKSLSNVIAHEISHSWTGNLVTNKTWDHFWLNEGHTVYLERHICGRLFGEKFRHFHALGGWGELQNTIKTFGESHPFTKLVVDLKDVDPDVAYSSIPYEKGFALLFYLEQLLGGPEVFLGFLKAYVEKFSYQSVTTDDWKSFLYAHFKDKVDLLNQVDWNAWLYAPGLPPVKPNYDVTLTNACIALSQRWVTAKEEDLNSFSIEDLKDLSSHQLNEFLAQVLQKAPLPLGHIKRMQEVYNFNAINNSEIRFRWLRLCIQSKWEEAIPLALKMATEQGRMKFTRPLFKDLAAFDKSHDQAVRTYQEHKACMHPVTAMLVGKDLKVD

CCCCC/C=C\C[C@@H](O)/C=C/C=C/C=C\[C@@H](O)CCCC(=O)O [LTB4, Leukotriene B4]
Kd [1]: > 60 nM
lower affinity of BLT2 for LTB4 than BLT1 [2]: 20 fold
Kd [3]: 0.1 to 0.7 nM

CN(CCCOc1ccc(Cc2ccccc2)cc1)CCC(=O)O.Cl [SC57461]
ionophore-induced LTB4 production [4]: caused inhibition
colitis symptoms [5]: significantly improved colitis symptoms
ionophore-induced LTB4 production [6]: caused inhibition
